Calls of active or inactive are those of the source.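 How the source made its calls: active means toxic to mouse fibroblast host cells, with IC50 below 50 µM; inactive means the rest.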
Test system: NIH-3T3 viability, ATP luminescence
Experiment: murine fibroblast viability via ATP level – cell-based, murine fibroblasts, cytotoxicity control for Trypanosoma cruzi inhibitor project (AID 1159561)
Conditions: 4 days

SMILES	IC50
O=C(NC1C(=O)N(c2ccccc2)C1c1cccnc1)c1ccc(Cl)s1 (centres undefined)	> 50 µM (inactive)
CC(C)N(C(=O)CN1C(=O)C(N)C(=O)N(c2ccccc2)c2ccccc21)c1ccccc1 (centres undefined)	20 µM
N#Cc1cc(N2CCCC2=O)ccc1Sc1ccccc1CO	> 50 µM (inactive)
CN(Cc1nnnn1C1CCN(Cc2ccc(-n3ccnc3)cc2)CC1)c1ccc(F)cc1F	25 µM
CC1CN(S(=O)(=O)c2ccc(NC(=O)c3cc(C4CC4)nc4c3cnn4C(C)C)cc2)CC(C)O1 (centres undefined)	> 50 µM (inactive)
Clc1ccc(C(CC2CCCCO2)Cn2cncn2)c(Cl)c1 (centres undefined)	40 µM
COc1ccc2c(Cl)c(C(=O)N3CCC3)sc2c1Cl	> 50 µM (inactive)
Fc1ccccc1N1C[C@H]2CCN(c3cccnc3)C[C@H]2C1	13 µM
CNc1cncc(C2CCCN2C(=O)Cc2coc3cc(C)ccc23)n1 (centres undefined)	> 50 µM (inactive)
COc1ccc(C(C)(C)C)cc1S(=O)(=O)n1ccnc1	> 50 µM (inactive)
CC(Cn1ccnc1)NC(=O)C1CC1c1cccc(Cl)c1Cl (centres undefined)	> 50 µM (inactive)
Cc1ccc2ccc(C(Nc3ccccn3)c3cccnc3)c(O)c2n1 (centres undefined)	10 µM
Cc1ccc(S(=O)(=O)Cn2nnnc2C(c2cccnc2)N2CCN(c3ccccc3)CC2)cc1 (centres undefined)	32 µM
Cc1ccc(S(=O)(=O)Nc2ccc(CN3CCN(C(=O)c4cccc(C#N)c4)CC3)cc2)cc1	> 50 µM (inactive)
O=c1ccc2ccc(F)c3c2n1C[C@H]3CN1CCC(NCc2cc3ccccc3o2)CC1	20 µM
Cn1c(CN2CCN(c3ncc(C(F)(F)F)cc3Cl)CC2)nc2ccncc21	10 µM
O=C(NCc1ccc(-n2cccc2)cc1)c1nc(Cn2ccc([N+](=O)[O-])n2)no1	50 µM
O=C(N1CCc2ccccc2CC1)C1(C(=O)N2CCC(n3c(=O)[nH]c4ncccc43)CC2)CC1	40 µM
CNc1cc(Cn2c(C(=O)c3cc(C)cc(Cl)c3)c(C(C)C)c(=O)[nH]c2=O)ccn1	10 µM
CN(Cc1nc2ccccc2s1)C(=O)C=Cc1cc2ccccc2o1	32 µM
COc1ccc(C(=O)Nc2cc(C(F)(F)F)ccc2N2CCOCC2)c(OC)c1	32 µM
O=C1CSC(c2cccnc2)N1c1ccc(Cl)cc1Cl (centres undefined)	> 50 µM (inactive)
COc1cccc(-c2cc(C(F)(F)F)nc(-n3ccc([N+](=O)[O-])n3)n2)c1	> 50 µM (inactive)
Cc1cc(C)c(C#N)c(SCC(=O)c2ccc3c(c2)OCO3)n1	> 50 µM (inactive)
COc1ccccc1-c1c(C)[nH]c2nc(N)nc(C)c12	> 50 µM (inactive)
Cc1c(C#N)c([N+](=O)[O-])nn1Cc1cccc(Cl)c1Cl	40 µM

SMILES	IC50
N#Cc1ccc(S(=O)(=O)N2CCC3(CCN(c4ccccc4)C3=O)CC2)cc1	> 50 µM (inactive)
O=C(Nc1ccc(Br)c(Cl)c1)Nc1ccc2c(c1)OCO2	16 µM
Cc1cccc(N2CCCN(Cc3c[nH]c4ccccc34)CC2)n1	25 µM
CC(C)(C)C(Cn1ccnc1)NC(=O)c1ccc2nc(C3CC3)oc2c1 (centres undefined)	> 50 µM (inactive)
Cn1nccc1-c1cc(OC(CN)c2ccccc2)cnc1-c1ccco1 (centres undefined)	20 µM
Cc1cc(Br)cc(C(=O)c2c(C(C)C)c(=O)[nH]c(=O)n2Cc2ccnc(N)c2)c1	16 µM
O=C(NCC1CCCCC1)c1cc(=O)c2ccccc2o1	32 µM
COc1cccc(C(=O)[C@H]2C[C@@H]2CN(Cc2cccnc2)Cc2cccnc2)c1	20 µM
COc1cccc(CCNC(=O)C(c2cn[nH]c2)N2CCN(c3ccc(Cl)cc3)CC2)c1 (centres undefined)	32 µM
O=[N+]([O-])c1cccc(Nc2cncc(-c3ccccc3CO)c2)c1	40 µM
CN(Cc1ccc(F)cc1)c1ccc(OCC(=O)N2CCCCC2c2cccnc2)nn1 (centres undefined)	10 µM
Nc1ncnc2c1ncn2[C@@H]1O[C@H](CO)C[C@H]1O	> 50 µM (inactive)
CCN(CC)S(=O)(=O)c1ccc(Cn2nc(C(=O)Nc3ccncn3)c3ccccc32)cc1	40 µM
Cc1cccc(NS(=O)(=O)c2cnc3sc(C)cn3c2=O)c1	> 50 µM (inactive)
O=C(Nc1ccc(Br)cn1)c1ccc(Cn2cnc([N+](=O)[O-])n2)cc1	> 50 µM (inactive)
CCOc1cnn(C)c(=O)c1Nc1ccc(C(=O)NCc2ccc(F)cc2)cc1	> 50 µM (inactive)
Cc1ccc(NC(=O)C(C)n2nc([N+](=O)[O-])c(Br)c2C)cc1Cl (centres undefined)	13 µM
Cc1ccccc1OCC(=O)N1CCCN(c2cccnn2)CC1	50 µM
O=S(=O)(c1ccccc1C(F)(F)F)N1CCN(Cc2ccc(-n3ccnc3)cc2)CC1	> 50 µM (inactive)
COc1ccc2ncc(=O)n(CCN3CCOC(CNCc4ccc(C(F)(F)F)cc4F)C3)c2n1 (centres undefined)	4 µM
O=c1[nH]cnc2c([C@@H]3O[C@H](CO)[C@@H](O)[C@H]3O)[nH]nc12	> 50 µM (inactive)
Cc1c(CNC(=O)c2ccc(Cn3cc(Cl)c([N+](=O)[O-])n3)cc2)cnn1C	> 50 µM (inactive)
COc1ccc2ncc(F)c(NC(=O)C3(O)CCC(NCc4ccc5c(c4)OCCO5)CC3)c2n1 (centres undefined)	7.9 µM
CCC1Oc2cc(S(=O)(=O)N(C)CC(=O)N3CCc4ccccc4C3)c(C)cc2NC1=O (centres undefined)	> 50 µM (inactive)
CCCN(Cc1ccc(OC)c(OC)c1)Cc1cc(=O)c2c(C)cc(C)cc2[nH]1	32 µM
O=C(c1cnn(-c2ccccc2)n1)N1CCCC(n2ccnc2)C1 (centres undefined)	20 µM

SMILES	IC50
O=S(=O)(NCC(c1cccnc1)N1CCN(c2ccccc2F)CC1)c1ccc(F)cc1 (centres undefined)	> 50 µM (inactive)
CC(=Cc1ccccc1)CN1CCC(=O)N(Cc2cccnc2)CC1	> 50 µM (inactive)
COc1ccc(C(=O)N2CCC(Nc3cccnc3)C2)c(OC)n1 (centres undefined)	> 50 µM (inactive)
O=C(c1cccc(Cl)c1Cl)N1CCn2c1nc(-c1ccncc1)cc2=O	20 µM
Cn1cc(CN2CCN(c3ccc4c(c3)CCN(C(=O)[C@H]3C[C@@H]3c3ccccc3)CC4)CC2)cn1	20 µM
CNc1cc(C)nc(C2CN(C(=O)c3n[nH]c4ccccc34)CCO2)c1 (centres undefined)	> 50 µM (inactive)
Cc1[nH]c2ccccc2c(=O)c1Cc1c(C)[nH]c2ccccc2c1=O	> 50 µM (inactive)
Fc1ccc(OC2CC(NCc3cccc4cn[nH]c34)C2)cc1C(F)(F)F (centres undefined)	13 µM
Cc1nn(C2CCS(=O)(=O)C2)c(C)c1CN(C)C(=O)C=Cc1sc2ccccc2c1Cl (centres undefined)	> 50 µM (inactive)
COc1ccc(S(=O)(=O)NCc2ccc(-c3ccc(CN(C)CCO)cc3)cc2)cc1	16 µM
CC1(C)CCC(=Cc2ccc(Cl)cc2)CC1(O)Cn1ccnc1 (centres undefined)	16 µM
CCC(=O)Nc1ccc(C(=O)Nc2ccccc2-c2ccccc2)cc1	> 50 µM (inactive)
COc1ccc(-c2cc(C)no2)cc1S(=O)(=O)Nc1ccc(F)c(Cl)c1	25 µM
COc1ccc(C)cc1-c1csc(NC(=O)C(C)n2ccnc2)n1 (centres undefined)	50 µM
CC(C(=O)Nc1ccc(Br)cc1)N1CCN(c2ccc([N+](=O)[O-])cc2)CC1 (centres undefined)	> 50 µM (inactive)
Clc1ccc(Sc2cnccc2N2CCOCC2)cc1	> 50 µM (inactive)
CCOc1ccc(NC(=O)C=Cc2ccc(CC)o2)cc1	32 µM
O=C(Nc1cccc(Cl)c1)N1CCCCC1c1cccnc1 (centres undefined)	32 µM
CN(Cc1ccccc1)Cc1nnnn1C1CCN(Cc2ccc(-n3ccnc3)cc2)CC1	4 µM
CC1=NN(C(=O)CCn2cnc([N+](=O)[O-])n2)C(O)(C(F)(F)F)C1 (centres undefined)	> 50 µM (inactive)
Cc1cccnc1CN1CCN(CCCOc2ccc(-c3ccc(C(N)=O)cc3)cc2)CC1	6.3 µM
C=CCn1nc([N+](=O)[O-])nc1Oc1ccc(Cl)cc1Cl	50 µM
COc1ccc(C2CC(c3ccccc3Cl)=NN2C(=O)CNC(=O)C2CCC2)cc1 (centres undefined)	32 µM
Cc1nc(N2CCC(C(=O)N3CCC(O)(c4cccnc4)CC3)CC2)nc2ccc(C(C)C)cc12	25 µM
O=C(C1CCCCC1)N1CCN(c2nnc(-c3ccccc3)c3ccccc23)CC1	> 50 µM (inactive)
Cc1ccc2nc(N(Cc3cccnc3)C(=O)CCc3ccccc3)sc2c1	16 µM

SMILES	IC50
O=C(NCc1nnc2n1CCCCC2)c1ccc(-c2ccc(F)cc2)o1	> 50 µM (inactive)
COc1ccc2nc(N(Cc3cccnc3)C(=O)C3CCC3)sc2c1	50 µM
CS(=O)(=O)NC1CCC(Oc2cc3cnccc3cc2-c2ccsc2)CC1 (centres undefined)	16 µM
N#Cc1cccc(CN2CCC(c3nc(-c4ccc(C(F)(F)F)nc4)no3)CC2)c1	> 50 µM (inactive)
O=C(NCC1CCCCC1)c1cnns1	> 50 µM (inactive)
Cn1cncc1CN1CCC2(CC1)COC(Cc1ccccc1)C2 (centres undefined)	25 µM
O=C(c1ccc(OCCCc2cnc[nH]2)cc1)C1CC1	13 µM
Cc1cc(N(C)C)nc(Nc2ccccc2C)n1	40 µM
CC(C)Oc1ccc(C(=O)Nc2ccc(N3CCOCC3)c(Cl)c2)cc1	10 µM
CCC(=O)Nc1ccc(-c2nc3ccc(Cl)cc3[nH]2)cc1	> 50 µM (inactive)
CNc1c(C(N)=O)c(-c2ccc3scnc3c2)nn1CC(F)(F)F	20 µM
C=CCOCC1Cn2nc([N+](=O)[O-])nc2O1 (centres undefined)	> 50 µM (inactive)
CN(C)Cc1ccc(N2CCC(NS(=O)(=O)c3ccc(Cl)cc3)CC2)cc1	16 µM
CCC(c1ccc(F)cc1)n1cncc1-c1cnn(C)c1 (centres undefined)	25 µM
O=C(NCCc1nc(-c2ccc(F)c(F)c2)n[nH]1)C1CCCCC1	> 50 µM (inactive)
Cc1sc(C)c(C(F)(F)F)c1CNCCCNc1cc(=O)c2ccccc2[nH]1	10 µM
CCN(C)Cc1ccc(N2CCC(NS(=O)(=O)c3ccc4c(c3)CCO4)CC2)nc1	13 µM
Cc1ccc(C)c(-n2nnnc2Sc2nc([N+](=O)[O-])nn2C)c1	> 50 µM (inactive)
O=C(CSc1ccc(-c2ccccn2)nn1)Nc1ccc(Cl)cc1	32 µM
COc1ccc(S(=O)(=O)NC(C)C)cc1Nc1ncc(-c2cccc(F)c2)cn1	5 µM
Cn1nc([N+](=O)[O-])nc1N1CCCCC1	> 50 µM (inactive)
N#Cc1ccc(S(=O)(=O)N2CCN(Cc3cccc(-c4ccncc4)c3)CC2)cc1	13 µM
OC1CCC(Nc2nccc(-c3sc(C4CCOCC4)nc3-c3ccc(F)c(F)c3)n2)CC1 (centres undefined)	40 µM
CN(C)CCN(C)Cc1ccc(F)cc1NS(=O)(=O)c1ccc(Cl)c(Cl)c1	16 µM
O=C1CN(C2CCCc3c(OCc4ccncc4)cccc32)C(=O)N1C1CCCCC1 (centres undefined)	> 50 µM (inactive)
O=S(=O)(c1cccc(CSc2nnc(-c3ccc4c(c3)OCO4)o2)c1)N1CCOCC1	16 µM

— PubChem BioAssay AID1159561 (GlaxoSmithKline (GSK), 2015)
